From PubChem BioAssay (NCI) come the findings set out here.

Some test systems named below: T-47D breast; DLD-1 colon; DMS 273 small cell lung; HOP-18 NSCLC; LXFL 529 NSCLC; M19-MEL melanoma; XF 498 CNS; MDA-N.
What all share (assay): NCI anticancer screen, dose series, 48 h

Values joined by “and” are separate entries in the source; they are usually repeats but may differ in a detail not shown here. Identical values can stand only once.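 Test compounds were applied to cells in 96-well plates for 48 hours at 5 doses. At the GI50, growth is halved. Definition used: TGI = concentration required for complete inhibition of growth.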

Consider `COc1cc(CNc2oc(-c3ccccc3)c(-c3ccccc3)c2C#N)cc(CN2CCN(C)CC2)c1O`, for which, in the test with T-47D breast, the GI50 is 1.91 µM and the TGI amounted to 4.17 µM.
Consider `O=C(Nc1cccc(C(F)(F)F)c1)Oc1ccc(Cl)c2cccnc12`, for which, in the test on T-47D breast, the GI50 is 1.8 µM and the TGI was > 28.2 µM.
With `COC(=O)CC[C@]12C[C@]13CC[C@]1(C)C4C(C)C[C@]5(CC(C)C(=O)O5)OC4CC1(C)C3CCC2C(C)(C)O` (stereo partly drawn), the TGI with DLD-1 colon was > 100 µM; with DMS 273 small cell lung, > 100 µM; in the test with HOP-18 NSCLC it was > 100 µM; in the test on LXFL 529 NSCLC, > 100 µM; in the test on M19-MEL melanoma, > 100 µM; with XF 498 CNS it was 87.6 µM.
Regarding `CCC(CO)Nc1nc2c(c(=O)n(C)c(=O)n2C)n1CCO` (stereo not drawn), the TGI in the test on DMS 273 small cell lung, in the test on LXFL 529 NSCLC and with M19-MEL melanoma was > 100 µM in each case.
For `COc1cc2nccc(Oc3ccc(NC(=O)c4cn(C(C)C)c(=O)n(-c5ccc(F)cc5)c4=O)cc3F)c2cc1OC`, in the test on T-47D breast, the GI50 is 3.23 µM and the TGI is 34.4 µM.
In the case of `CCN(Cc1c(F)cccc1Cl)c1ccc(CO)c(Cl)c1`, in the test on T-47D breast, the GI50 is < 0.0153 µM and the TGI came to 0.0496 µM.
For the molecule `O=C1CSC(c2c[nH]c3ccccc23)N1c1ccc(Cl)cc1Cl` (stereo not drawn), the TGI with MDA-N and in the test with T-47D breast was > 100 µM throughout.
`CC/C(=C/c1ccc(OC)cc1OC)[N+](=O)[O-]`: in the test with T-47D breast, the GI50 is 1.72 µM and the TGI was 5.06 µM.
With `Nc1c2ccccc2nc2c(C(=O)Nc3ccc(S(N)(=O)=O)cc3)cccc12`, the TGI in the test with DLD-1 colon, in the test on DMS 273 small cell lung, in the test on LXFL 529 NSCLC, in the test with M19-MEL melanoma and in the test on XF 498 CNS was > 100 µM each time.
As to `COc1cc2c3c(n(CCCNCCCN)c(=O)c2cc1OC)-c1cc2c(cc1C3=O)OCO2`, in the test with T-47D breast, the GI50 is 2.8 µM and the TGI came to 14.7 µM.
In the case of `CC(C)(C)OC(=O)Nc1ccc2c(c1)C(NC(=O)Nc1cccc(C#N)c1)CC(C)(C)O2` (stereo not drawn), in the test on T-47D breast, the GI50 is 2.52 µM and the TGI was 33 µM.
For the molecule `CC[C@H](C)[C@H](NC(=O)c1cccn1C)C(=O)N(C)[C@H](C[C@@H](OC(C)=O)c1nc(C(=O)N[C@@H](Cc2ccccc2)C[C@H](C)C(=O)OC)cs1)C(C)C`, in the test on T-47D breast, the GI50 is 0.0946 µM and the TGI was > 33.3 µM.
In the case of `CC(=O)[O-].N.N.N.N.[Co+3].[O-][Cl+3]([O-])([O-])[O-].[OH3+]`, the GI50 in the test on DLD-1 colon, in the test with DMS 273 small cell lung and in the test with LXFL 529 NSCLC was > 100 µM throughout. Further, the TGI in the test with DLD-1 colon, in the test on DMS 273 small cell lung and in the test on LXFL 529 NSCLC was > 100 µM in each case.
As to `CC(C)(C)OC(=O)N[C@@H](Cc1ccccc1)C(=O)N(Cc1ccccc1)C1(C(=O)NCc2ccccc2)CCN(Cc2ccccc2)CC1`, in the test on T-47D breast, the GI50 is 2.89 µM and the TGI was > 100 µM.
On to `N#CC1=C(N)NC(=O)NC12Nc1ccccc1N2`, for which, in the test on T-47D breast, the GI50 is > 100 µM and the TGI is > 100 µM.
For the molecule `O=C1NC(c2ccccc2)C2(C(=O)O)CN(C3CC3)c3cc(N4CCNCC4)c(F)cc3C2N1` (stereo not drawn), in the test on T-47D breast, the GI50 was > 100 µM and the TGI was > 100 µM.
As for `COc1ccc2c(c1OC)C(=O)N1C2=Cc2c(cc3c(c2OC)OCO3)CC1N(C)C` (stereo not drawn), the TGI with MDA-N is > 100 µM; in the test on T-47D breast it was 74.4 µM.
Turning to `O=C(O)c1ccc(SSc2ccc(C(=O)O)cn2)nc1`, the TGI in the test with MDA-N and with T-47D breast was > 100 µM in each case.
As for `CC(SCc1ccccc1)C(=O)O` (stereo not drawn), the TGI with MDA-N and with T-47D breast was > 100 µM throughout.
`O=c1/c(=N\Nc2ccccc2)c2cccc3ccc4cccc1c4c32`: the TGI with MDA-N and in the test with T-47D breast was > 100 µM throughout.
As for `CCn1c2ccccc2c2cc(C(=O)c3ccc(C)c4ccccc34)ccc21`, in the test on T-47D breast, the GI50 is 0.76 µM and the TGI was > 100 µM.
Take `COc1ccc(S(=O)(=O)N(C(C)=O)c2ccccc2/C=C/c2cc[n+]([O-])cc2)cc1`: in the test with T-47D breast, the GI50 is 3.84 µM and the TGI is > 10 µM.
Consider `C=C(C)[C@@H]1CC[C@]2(C(=O)NS(=O)(=O)c3ccccc3)CC[C@]3(C)[C@H](CC[C@@H]4[C@@]5(C)CC[C@H](OC(=O)NS(=O)(=O)c6ccccc6)C(C)(C)[C@@H]5CC[C@]43C)[C@@H]12`, for which, in the test on T-47D breast, the GI50 was 1.74 µM and the TGI was 7.37 µM.
The corresponding values for `O=P(O)(O)OCC1OC(n2cnc3c(NCc4ccccc4)ncnc32)C(O)C1O` (stereo not drawn) are 1.37 µM and 10.3 µM.
As for `CC1SC(c2ccc(Cl)cc2Cl)N(NC(=O)C(O)c2ccccc2)C1=O` (stereo not drawn), in the test with T-47D breast, the GI50 was > 100 µM and the TGI is > 100 µM.
In the case of `C[N+](C)=c1ccc2nc3c(cc(NCCCNc4cc5oc6cc(=[N+](C)C)ccc-6nc5c5ccccc45)c4ccccc43)oc-2c1`, in the test with T-47D breast, the GI50 is 3.12 µM and the TGI was > 24.2 µM.
Turning to `C[C@@H]1CC[C@@]2(NC1)O[C@H]1C[C@H]3[C@@H]4CC[C@H]5C[C@@H](O)CC[C@]5(C)[C@H]4CC[C@]3(C)[C@H]1[C@@H]2C`, the TGI with MDA-N and with T-47D breast was > 100 µM throughout.
As to `CN(C)CCCNc1nc2ccccc2c2[nH]c3ccccc3c12`, in the test with T-47D breast, the GI50 is 5.18 µM and the TGI was found to be 16.5 µM.
With `O/N=C/c1ccc(O)c(O)c1`, the TGI in the test on DLD-1 colon, in the test with DMS 273 small cell lung, in the test on LXFL 529 NSCLC, in the test on M19-MEL melanoma and in the test on XF 498 CNS was > 100 µM each time.
As for `COC(=O)[C@H](Cc1cn(C)cn1)NC(=O)[C@H](Cc1ccccc1)NC(=O)Nc1cc(C(F)(F)F)cc(C(F)(F)F)c1`, in the test on T-47D breast, the GI50 was 3.54 µM and 8.29 µM; the TGI is 27 µM.
Turning to `O=C([O-])CC(=O)[O-].[NH-][C@@H]1CCCC[C@H]1[NH-].[Pt+4]`, the GI50 with LXFL 529 NSCLC was 25.2 µM; in the test on M19-MEL melanoma, 14.3 µM; with MDA-N, 19.9 µM; in the test on T-47D breast, 8.38 µM. Moreover, the TGI with LXFL 529 NSCLC, with M19-MEL melanoma, in the test on MDA-N and with T-47D breast was > 100 µM in each case.
